Experimental data: ChEMBL document CHEMBL3044583, “Mechanisms and Issues Relating to the Use of D1-like Dopamine Receptor Agonists for Age-related Illnesses: Parkinson?s Disease and Memory and Cognition” (Med Chem Res, 2004)

Experiments:
[1] = molecular target: D(1A) dopamine receptor (Homo sapiens) (UniProt P21728); assay: Binding affinity to dopamine D1 receptor (unknown origin)
[2] = molecular target: D(1A) dopamine receptor (Rattus norvegicus) (UniProt P18901)
Description: Binding affinity to dopamine D1 receptor in Rattus norvegicus (rat) brain

[3] = Half life in Rattus norvegicus (rat) plasma; assay type: ADME, cell-free

Chain of D(1A) dopamine receptor (Homo sapiens) (P21728 whole entry): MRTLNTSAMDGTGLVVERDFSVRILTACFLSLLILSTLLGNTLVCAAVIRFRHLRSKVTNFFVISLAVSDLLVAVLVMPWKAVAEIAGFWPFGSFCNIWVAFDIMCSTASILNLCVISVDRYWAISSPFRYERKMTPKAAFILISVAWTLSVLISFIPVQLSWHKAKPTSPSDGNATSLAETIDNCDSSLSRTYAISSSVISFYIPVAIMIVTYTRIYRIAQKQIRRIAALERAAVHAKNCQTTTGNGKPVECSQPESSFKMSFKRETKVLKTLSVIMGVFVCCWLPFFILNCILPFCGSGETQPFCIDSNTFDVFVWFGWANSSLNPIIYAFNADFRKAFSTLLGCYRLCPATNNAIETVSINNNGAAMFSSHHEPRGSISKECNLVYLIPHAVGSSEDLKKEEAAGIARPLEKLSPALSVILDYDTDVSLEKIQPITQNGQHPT
Chain of D(1A) dopamine receptor (Rattus norvegicus) (P18901 whole entry): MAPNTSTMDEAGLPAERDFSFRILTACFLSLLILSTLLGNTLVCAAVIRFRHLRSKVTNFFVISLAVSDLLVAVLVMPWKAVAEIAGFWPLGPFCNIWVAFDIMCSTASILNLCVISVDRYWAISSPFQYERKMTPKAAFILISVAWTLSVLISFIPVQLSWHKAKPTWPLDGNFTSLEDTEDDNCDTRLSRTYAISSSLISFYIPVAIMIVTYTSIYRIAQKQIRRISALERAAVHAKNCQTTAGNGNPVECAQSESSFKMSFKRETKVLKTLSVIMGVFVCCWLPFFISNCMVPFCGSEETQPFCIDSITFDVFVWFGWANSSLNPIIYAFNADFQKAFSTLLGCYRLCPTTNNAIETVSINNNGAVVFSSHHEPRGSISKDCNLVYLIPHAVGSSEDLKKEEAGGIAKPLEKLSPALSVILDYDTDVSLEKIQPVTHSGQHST

CCCc1cc2c(s1)CN[C@@H]1CCc3cc(O)c(O)cc3[C@@H]21 (relative stereo) showed a K0.5 [1] of 1 nM.

For NC[C@@H]1O[C@H](c2ccccc2)Cc2c1ccc(O)c2O (relative stereo), the K0.5 [1] was 1 nM.

With Oc1cc2c(cc1O)[C@H]1c3ccccc3CN[C@@H]1CC2 the K0.5 [2] was 5 nM.

Compound CCCc1cc2c(s1)CN[C@@H]1CCc3cc(OC(C)=O)c(OC(C)=O)cc3[C@@H]21.Cl (relative stereo) [ADROGOLIDE HYDROCHLORIDE] has a half-life [3] of 1 min.

NC[C@@H]1O[C@H](C23CC4CC(CC(C4)C2)C3)Cc2c1ccc(O)c2O showed a K0.5 [1] of 1 nM.
